In patent EP0111607A1, “Tropyl and pseudotropyl alkyl-benzoates and their use in migraine treatment” (MERRELL TORAUDE ET COMPAGNIE, priority 1982, dated 1984):

Target: T1, 5-HT M-receptor (Oryctolagus cuniculus, UniProt G1TUQ4)
T1 sequence (G1TUQ4 24-513): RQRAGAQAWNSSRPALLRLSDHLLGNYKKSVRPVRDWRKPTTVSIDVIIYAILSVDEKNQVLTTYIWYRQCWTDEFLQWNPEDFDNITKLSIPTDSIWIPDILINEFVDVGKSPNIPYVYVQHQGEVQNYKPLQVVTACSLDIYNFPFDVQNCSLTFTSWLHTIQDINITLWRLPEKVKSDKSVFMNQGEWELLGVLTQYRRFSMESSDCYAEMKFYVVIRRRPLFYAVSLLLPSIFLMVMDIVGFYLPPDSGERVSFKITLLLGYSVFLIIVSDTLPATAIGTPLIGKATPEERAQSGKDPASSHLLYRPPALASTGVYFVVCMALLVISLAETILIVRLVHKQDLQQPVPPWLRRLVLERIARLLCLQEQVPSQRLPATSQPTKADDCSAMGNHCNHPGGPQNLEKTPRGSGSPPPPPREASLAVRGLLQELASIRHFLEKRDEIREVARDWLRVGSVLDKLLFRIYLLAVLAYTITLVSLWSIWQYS
Assay: pA2 against 5-HT in the isolated rabbit heart
Conditions: Table II, representative compounds of Formula I
Description: The activity of the compounds against 5-HT can be assessed by determining their pA2 values in the isolated rabbit heart as described by Fozard et at Europ. J. Pharmacol. 59, 195-210 (1979). In the method described the molar concentration of antagonist which reduces the effects of twice the ED50 of 5-HT to that of the ED50 in the absence of antagonist is determined. The pA2 value is the negative logarithm of said molar concentrations.

Going from `Cc1cc(C)cc(C(=O)OC2CC3CCC(C2)N3C)c1` (stereo not drawn) [pseudotropyl 3,5-dimethylbenzoate, 3,5-DIMETHYL-BENZOIC ACID EXO-8-METHYL-8-AZABICYCLO[3,2,1]OCT-3-YL ESTER] to `Cc1ccc(C(=O)OC2CC3CCC(C2)N3C)cc1C` (stereo not drawn) [tropyl 3,4-dimethylbenzoate, 3,4-DIMET[…] ENDO-8-METHYL-8-AZABICYCLO[3,2,1]OCT-3-YL ESTER], the “pA2 5-HT” value falls from 8.9 to 8.2.

Going from `Cc1ccc(C(=O)OC2CC3CCC(C2)N3C)c(C)c1` (stereo not shown) [tropyl 2,4-dimethylbenzoate] to `Cc1ccc(C)c(C(=O)OC2CC3CCC(C2)N3C)c1` (stereo not shown) [tropyl 2,5-dimethylbenzoate], the “pA2 5-HT” value falls from 8.8 to 8.6.

In the case of `Cc1ccccc1C(=O)OC1CC2CCC(C1)N2C` (stereo not shown) [tropyl 2-methylbenzoate], the “pA2 5-HT” value is reported as 8.1.

Same assay, conditions: Table III, related compounds for comparative purposes

First: CN1C2CCC1CC(OC(=O)c1ccccc1)C2 (stereo not shown) [pseudotropyl benzoate]
Second: Cc1cccc(C(=O)OC2CC3CCC(C2)N3C)c1 (stereo not shown) [tropyl 3-methylbenzoate]
The “pA2 5-HT” value of the first is lower: 7.0 for the first, 8.1 for the second.

Compared with `CN1C2CCC1CC(OC(=O)c1ccc(Cl)c(Cl)c1)C2` (stereo not shown) [pseudotropyl-3,4-dichlorobenzoate], `CN1C2CCC1CC(OC(=O)c1ccc(Cl)cc1)C2` (stereo not shown) [pseudotropyl-4-chlorobenzoate] is lower in “pA2 5-HT” value: 7.5 for the first, 6.7 for the second.

Target: T1, 5-HT M-receptor
Assay: not given
Conditions: 5-HT M-receptor antagonism; reported by Fozard et al., Eur. J. Pharmacol. 59(1979) and 49(1978), same procedure; cited from earlier work

First: CCN(CC)CCNC(=O)c1cc(Cl)c(N)cc1OC [metoclopramide]
Second: COC(=O)[C@H]1[C@@H](OC(=O)c2ccccc2)C[C@@H]2CC[C@H]1N2 [nor(-)cocaine]
The pA2 of the first is lower: 7.2 for the first, 7.7 for the second.

First: CN1C2CCC1CC(OC(=O)c1ccccc1)C2 (stereo not shown) [pseudotropyl benzoate]
Second: CN1[C@@H]2CC[C@H]1C[C@@H](OC(=O)c1ccccc1)C2 [tropyl benzoate]
The pA2 of the first is lower: 7.0 for the first, 7.2 for the second.

Same assay, conditions: 5-HT M-receptor antagonism; tests referred to with European Patent Application No. 82401060.7; cited from earlier work

Compared with `COc1cc(C(=O)OC2CC3CCC(C2)N3C)cc(OC)c1OC` (stereo not shown) [pseudotropyl-3,4,5-trimethoxybenzoate], `COc1ccc(C(=O)O[C@H]2C[C@H]3CC[C@@H](C2)N3C)cc1OC` [tropyl 3,4-dimethoxybenzoate] is higher in pA2: 5.7 for the first, 7.2 for the second.

First: COc1cc(OC)cc(C(=O)OC2CC3CCC(C2)N3C)c1 (stereo not shown) [pseudotropyl-3,5-dimethoxybenzoate]
Second: CN1C2CCC1CC(OC(=O)c1ccc(Cl)c(Cl)c1)C2 (stereo not shown) [tropyl-3,4-dichlorobenzoate]
The pA2 of the first is lower: 6.6 for the first, 7.8 for the second.

Going from `CN1C2CCC1CC(OC(=O)c1ccc(Cl)cc1)C2` (stereo not shown) [tropyl 4-chlorobenzoate] to `Cc1ccc(C(=O)O[C@H]2C[C@H]3CC[C@@H](C2)N3C)cc1` [tropyl 4-methylbenzoate], the pA2 rises from 7.0 to 7.8.
